Publication PMC9322164, “Novel Neuroprotective Potential of Bunchosia armeniaca (Cav.) DC against Lipopolysaccharide Induced Alzheimer’s Disease in Mice” (Plants, 2022)

Columns and labels:
[1] = DPPH radical scavenging assay; settings: mean ± SD, n = 6
[2] = ABTS cation radical decolorization assay; settings: mean ± SD, n = 6
[3] = Ferric reducing antioxidant power (FRAP) assay; settings: mean ± SD, n = 6
Description: Natural products’ ability to reduce metals is regarded as a key marker of their antioxidant properties. Spectroscopically, the quantity of ferric (Fe^3+) complex conversion to ferrous (Fe^2+) form is detected by the color change of the solution based on the compound’s ability for reduction. The increased reduction capability of the studied sample is shown by the higher absorbance of the reaction mixture. FRAP values of B. armeniaca extract and its fractions were recorded in (Table 2) and expressed as EC50 (µg/mL).
The FRAP technique was carried out in microplates with slight modifications as described by. Briefly, a fresh FRAP solution was prepared shortly before the reaction in a 10:1:1 v/v/v ratio, consisting of acetate buffer (300 mM, PH = 3.6), tripyridyltriazine (TPTZ, 10 mM) in HCl (40 mM), and FeCl3 (20 mM), respectively. […] The FRAP test measured the absorbance change generated by electron-donating antioxidants converting a colorless oxidized Fe^+3-TPTZ complex to a blue-colored Fe^+2 molecule in acidic conditions. Data are represented as mean ± SD.
FRAP assay data were determined by Microsoft Excel®. […] AChE inhibition activity was performed in triplicate. […] The difference was considered significant when p < 0.05.

[4] = set-up: method as in earlier work; settings: previous research ref 5; cited from earlier work
[5] = tested on: LPS-induced Alzheimer in mice; assay: Y maze spontaneous alternation test in LPS-induced Alzheimer in mice; assay type: in vivo; settings: LPS 250 µg/kg/day IP 7 days; compared to normal control
Description: Fifty male Swiss mice weighing 20–35 gm were chosen for the investigation. They were held in filter-top plastic cages under hygienic conditions, with 12-h light and 12-hour dark cycles and 50% humidity at 28 °C. Unnecessary disturbance of animals was avoided. Squeezing, pressure, and abrasive maneuvers were avoided when dealing with the animals. Throughout the experiment, mice were fed a standard pellet meal, and water was allowed ad libitum. The laboratory animal experiments were conducted to comply with the recommendations of the Guide for the Care and Use of Laboratory Animals of the National Research Centre, Egypt, and the National Institutes of Health (NIH No. 85:23 revised 1985) in accordance with the guidelines provided by the CPCSEA and the World Medical Association Declaration of Helsinki on Ethical Principles for Studies Involving Experimental Animals. […]
Y maze spontaneous alternation test was performed 24 h after the last treatment dose, according to [126]. […] One day later, the mouse was allowed eight minutes of movements while its motion was recorded. The letter of the mouse was recorded down every time it entered an arm with all of its limbs inside. […] The alternation percentage was determined using the formula below: Number of alternations/(Total arm entries −2) ∗ 100

[6] = tested on: NF-κB; assay: Brain content of NF-κB (ELISA) in LPS-induced Alzheimer in mice; assay type: in vivo; settings: LPS 250 µg/kg/day IP 7 days; compared to normal control
Description: (§1) Firstly, mice were anesthetized using an IP injection of ketamine at a dose of 80–100 mg/kg. After they achieved a deep anesthetic state, mice were sacrificed by decapitation. Each mouse’s brain was promptly dissected and washed with phosphate-buffered saline (PBS) to eliminate extra blood. Weighed pieces were homogenized in PBS with the MPW-120 homogenizer, Med Instruments, Poland, to obtain a 20% homogenate, then they were kept overnight at −20 °C. […] The supernatant was removed immediately and assayed for brain contents of NF-κB, IL-1β, CYP2E1, and GFAP. They were determined using an ELISA kit (SunLong Biotec Co., Ltd., Hangzhou, China).
(§2) Standards and samples were added to wells containing immobilized antibodies specific for […] NF-κB, IL-1β, CYP2E1, and GFAP and kept for 30 min of incubation at 37 °C. After washing, horseradish peroxidase-conjugated streptavidin was added to the wells, kept for 30 min of incubation at 37 °C, and then washed for a second time. The wells were filled with tetramethylbenzidine (TMB) substrate solution and kept for 15 min of incubation at 37 °C; a color was produced in proportion to the quantity of NF-κB, IL-1β, CYP2E1, and GFAP bound. A stop solution was added to the wells to terminate the color development, and color intensity was detected at 450 nm after 10 min [130].

[7] = tested on: IL-1β; assay: Brain content of IL-1β (ELISA) in LPS-induced Alzheimer in mice; assay type: in vivo; settings: LPS 250 µg/kg/day IP 7 days; compared to normal control
Description: as §1, §2

[8] = tested on: CYP2E1; assay: Brain content of CYP2E1 (ELISA) in LPS-induced Alzheimer in mice; assay type: in vivo; settings: LPS 250 µg/kg/day IP 7 days; compared to normal control
Description: as §1, §2

[9] = tested on: GFAP; assay: Brain content of GFAP (ELISA) in LPS-induced Alzheimer in mice; assay type: in vivo; settings: LPS 250 µg/kg/day IP 7 days; compared to normal control
Description: as §1, §2

[10] = tested on: mice brain; assay: Histopathological examination of mice brain (H&E); assay type: in vivo; settings: LPS model, extracts 200 mg/kg/day oral 7 days
Description: Autopsy specimens were obtained from mice brains, divided into several groups and preserved in 10% formol saline for a day. Subsequently, rinsing with tap water, dehydration was achieved by alcohol serial dilutions (methyl, ethyl, and absolute ethyl alcohol). Samples were cleaned with xylene and immersed in paraffin for a day at 56 °C in a hot air oven. Paraffin beeswax tissue blocks were made using a sledge microtome and sectioned at a thickness of […].

Cc1c(C)c2c(c(C)c1O)CCC(C)(C(=O)O)O2 (centres unmarked) [Trolox]
DPPH Assay IC50 [1]: 24.42 ± 0.87 µg/mL
ABTS Assay IC50 [2]: 22.56 ± 0.78 µg/mL
FRAP Assay EC50 [3]: 96.97 ± 2.73 µg/mL

O=C(O)c1cc(O)c(O)c(O)c1 [gallic acid]
DPPH IC50 [4]: 3.6 µg/mL

Lipopolysaccharide [LPS]
decrease of Y-maze alteration [5]: 58%
increase of NF-κB in the brain [6]: 309%
increase of IL-1β in the brain [7]: 193%
elevation of CYP2E1 brain content [8]: 235%
elevation of GFAP brain expression [9]: 276%
histopathology of cerebellum [10]: normal histological findings
histopathology of cerebral cortex [10]: nuclear pyknosis and neuronal degeneration with focal gliosis
histopathology of fascia dentata and hilus in the hippocampus [10]: nuclear pyknosis with degeneration
histopathology of hippocampus subiculum [10]: nuclear pyknosis and degeneration in some neurons
histopathology of striatum [10]: multiple focal eosinophilic plagues formation
